Consider one compound from ChEMBL document CHEMBL1165912, “Synthesis and binding analysis of unique AG2 pentasaccharide to human Siglec-2 using NMR techniques” (Bioorg Med Chem, 2010).

The target of this test is T1, B-cell receptor CD22 (Homo sapiens, UniProt P20273).
T1 sequence (P20273 whole entry): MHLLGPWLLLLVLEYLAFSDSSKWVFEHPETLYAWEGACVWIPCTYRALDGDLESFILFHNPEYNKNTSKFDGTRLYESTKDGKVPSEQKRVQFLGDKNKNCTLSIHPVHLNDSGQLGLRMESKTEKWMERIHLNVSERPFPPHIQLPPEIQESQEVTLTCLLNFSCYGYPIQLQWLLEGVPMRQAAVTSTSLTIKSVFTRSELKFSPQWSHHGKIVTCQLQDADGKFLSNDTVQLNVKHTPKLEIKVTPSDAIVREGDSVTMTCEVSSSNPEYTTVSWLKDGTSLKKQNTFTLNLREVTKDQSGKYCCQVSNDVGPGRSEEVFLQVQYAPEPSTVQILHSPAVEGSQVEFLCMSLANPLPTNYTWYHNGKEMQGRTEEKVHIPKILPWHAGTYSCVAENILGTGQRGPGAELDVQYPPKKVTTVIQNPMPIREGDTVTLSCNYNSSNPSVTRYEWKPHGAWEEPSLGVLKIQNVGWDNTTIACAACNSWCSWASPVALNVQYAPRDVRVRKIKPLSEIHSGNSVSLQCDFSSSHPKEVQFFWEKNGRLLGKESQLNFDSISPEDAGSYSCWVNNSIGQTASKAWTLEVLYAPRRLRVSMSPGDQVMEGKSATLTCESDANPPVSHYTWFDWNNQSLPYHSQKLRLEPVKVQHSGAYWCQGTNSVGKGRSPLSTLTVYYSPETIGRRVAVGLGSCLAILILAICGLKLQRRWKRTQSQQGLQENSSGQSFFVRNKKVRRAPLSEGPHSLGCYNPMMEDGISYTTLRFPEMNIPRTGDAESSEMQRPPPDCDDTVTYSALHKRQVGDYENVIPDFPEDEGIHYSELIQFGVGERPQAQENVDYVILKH
As to the kind of experiment: Binding affinity to human SIGLEC2 by saturation transfer difference-titration assay.

One may read the Kd as the equilibrium constant for the complex coming apart.

Take `CC(=O)N[C@H]1[C@@H]([C@H](O)[C@H](O)CO)O[C@@](O[C@H]2[C@@H](O)[C@@H](CO)O[C@@H](O[C@H]3[C@H](O)[C@@H](O)[C@H](OCC[Si](C)(C)C)O[C@@H]3CO)[C@@H]2O)(C(=O)O)C[C@@H]1O[C@H]1O[C@H](CO)[C@H](O)[C@H](O[C@@H]2O[C@@H]([C@H](O)CO)[C@H](O)[C@H]2O)[C@H]1O` (stereo in doubt): the Kd was determined as 2000 µM. That is a millimolar value.
